# Measurements published in ChEMBL document CHEMBL1201862, “PubChem BioAssay data set” (2004).
#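 Briefly, cells in 96-well plates were exposed to five compound concentrations for 48 h, and endpoints were estimated by linear interpolation. At the GI50, growth is halved.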 Calls of active or inactive are those of the source. No stated cut-off is given here; in the data, active = GI50 up to about 1.1 µM and inactive = higher.
# What was measured:
# Experiment in all cases: inhibition of tumour cell growth, NCI panel, 48 h
# U-251 = test system: U-251
# SK-MEL-28 = test system: SK-MEL-28
# SK-MEL-2 = test system: SK-MEL-2
# HCC 2998 = test system: HCC 2998
# EKVX = test system: EKVX
# HT-29 = test system: HT-29
# CAKI-1 = test system: CAKI-1
# M14 = test system: M14
# HCT-116 = test system: HCT-116
# SK-MEL-5 = test system: SK-MEL-5
# NCI-H226 = test system: NCI-H226
# UACC-62 = test system: UACC-62
# KM12 = test system: KM12
# IGROV-1 = test system: IGROV-1
# OVCAR-8 = test system: OVCAR-8
# SK-OV-3 = test system: SK-OV-3
# NCI-H522 = test system: NCI-H522
# HOP-62 = test system: HOP-62
# A549 = test system: A549
# BT-549 = test system: BT-549
Compound,GI50 (U-251),GI50 (SK-MEL-28),GI50 (SK-MEL-2),GI50 (HCC 2998),GI50 (EKVX),GI50 (HT-29),GI50 (CAKI-1),GI50 (M14),GI50 (HCT-116),GI50 (SK-MEL-5),GI50 (NCI-H226),GI50 (UACC-62),GI50 (KM12),GI50 (IGROV-1),GI50 (OVCAR-8),GI50 (SK-OV-3),GI50 (NCI-H522),GI50 (HOP-62),GI50 (A549),GI50 (BT-549)
COc1ccc(OC)c(/C=C/c2cnnc3ccccc23)c1,5.19 µM (inactive),8.47 µM (inactive),2.16 µM (inactive),5.27 µM (inactive),4.15 µM (inactive),5.31 µM (inactive),4.61 µM (inactive),5.21 µM (inactive),3.4 µM (inactive),3.61 µM (inactive),5.73 µM (inactive),3.74 µM (inactive),2.8 µM (inactive),> 10 µM (inactive),7.5 µM (inactive),5.5 µM (inactive),3.66 µM (inactive),4.12 µM (inactive),3.27 µM (inactive),
CC(=S)NC1C(Oc2ccc3c(C)cc(=O)oc3c2)OC(CO)C(O)C1O (centres undefined),> 100 µM (inactive),> 100 µM (inactive),> 100 µM (inactive),,> 100 µM (inactive),> 100 µM (inactive),> 100 µM (inactive),,> 100 µM (inactive),> 100 µM (inactive),> 100 µM (inactive),> 100 µM (inactive),> 100 µM (inactive),> 100 µM (inactive),> 100 µM (inactive),> 100 µM (inactive),,> 100 µM (inactive),> 100 µM (inactive),> 100 µM (inactive)
Cc1ccc(S(=O)(=O)N/N=C(\c2nc3ccc([N+](=O)[O-])cc3nc2O)C(O)c2ccccc2Cl)cc1 (centres undefined),> 100 µM (inactive),> 100 µM (inactive),> 100 µM (inactive),> 100 µM (inactive),> 100 µM (inactive),> 100 µM (inactive),> 100 µM (inactive),82.8 µM (inactive),> 100 µM (inactive),55.3 µM (inactive),> 100 µM (inactive),86.9 µM (inactive),93.8 µM (inactive),> 100 µM (inactive),> 100 µM (inactive),> 100 µM (inactive),6.93 µM (inactive),> 100 µM (inactive),> 100 µM (inactive),
Oc1cc(CN2COc3ccccc32)c(O)cc1CNC1CCCCC1,17.7 µM (inactive),21.8 µM (inactive),23.3 µM (inactive),,17.3 µM (inactive),22 µM (inactive),28.3 µM (inactive),31.3 µM (inactive),18.3 µM (inactive),19.3 µM (inactive),,23.9 µM (inactive),49.9 µM (inactive),32.8 µM (inactive),24 µM (inactive),64.9 µM (inactive),14.1 µM (inactive),71.1 µM (inactive),> 100 µM (inactive),29.9 µM (inactive)
CCN(CC)C(=O)N1CN(c2ccccc2)C2(CCN(CCCSc3ccc(F)cc3)CC2)C1=O,11.9 µM (inactive),18.4 µM (inactive),7.16 µM (inactive),,3.93 µM (inactive),2.85 µM (inactive),87.7 µM (inactive),3.56 µM (inactive),2.58 µM (inactive),3.66 µM (inactive),18.9 µM (inactive),> 10 µM (inactive),10.2 µM (inactive),,15.1 µM (inactive),19 µM (inactive),13.2 µM (inactive),,18.8 µM (inactive),13.5 µM (inactive)
CC1C/C(=C\c2ccc(OC(=O)C(C)(C)C)cc2)C(=O)/C(=C/c2ccc(OC(=O)C(C)(C)C)cc2)C1 (centres undefined),31 µM (inactive),> 100 µM (inactive),61 µM (inactive),> 100 µM (inactive),> 100 µM (inactive),> 100 µM (inactive),> 100 µM (inactive),> 100 µM (inactive),61.2 µM (inactive),57.3 µM (inactive),22.2 µM (inactive),95.5 µM (inactive),26.2 µM (inactive),7.64 µM (inactive),36 µM (inactive),> 100 µM (inactive),4.29 µM (inactive),41.2 µM (inactive),40.6 µM (inactive),
C=CCC1(CN(C)C)CC/C(=C\c2ccc(Cl)cc2)C1=O (centres undefined),38.1 µM (inactive),> 83.2 µM (inactive),> 100 µM (inactive),33.1 µM (inactive),38.9 µM (inactive),24.1 µM (inactive),> 100 µM (inactive),23.7 µM (inactive),19.9 µM (inactive),28.8 µM (inactive),96.8 µM (inactive),49.9 µM (inactive),29.5 µM (inactive),29.2 µM (inactive),42.3 µM (inactive),> 100 µM (inactive),18.9 µM (inactive),> 100 µM (inactive),59.6 µM (inactive),
Cc1[nH]c2ccccc2c1C(=O)/C=C/c1ccccc1O,> 100 µM (inactive),> 100 µM (inactive),> 100 µM (inactive),> 100 µM (inactive),> 100 µM (inactive),> 100 µM (inactive),> 100 µM (inactive),> 100 µM (inactive),> 100 µM (inactive),> 100 µM (inactive),> 10 µM (inactive),> 100 µM (inactive),> 100 µM (inactive),> 100 µM (inactive),> 100 µM (inactive),> 100 µM (inactive),> 100 µM (inactive),> 100 µM (inactive),> 100 µM (inactive),
CC(C)(C)OC(=O)C(C#N)C(=O)c1ccc(C(=O)O)[nH]1 (centres undefined),30.6 µM (inactive),62.2 µM (inactive),23.6 µM (inactive),,29.2 µM (inactive),39.2 µM (inactive),18.8 µM (inactive),44.2 µM (inactive),38.4 µM (inactive),31 µM (inactive),38 µM (inactive),18.3 µM (inactive),34.8 µM (inactive),,30.1 µM (inactive),42 µM (inactive),33.5 µM (inactive),,35.9 µM (inactive),48.5 µM (inactive)
Cc1cc(CCC(=O)NCCNc2c3ccccc3nc3ccccc23)cc(C)c1O[Si](C)(C)C(C)(C)C,0.312 µM (active),1.92 µM (inactive),1.91 µM (inactive),,1.6 µM (inactive),0.446 µM (active),,1.66 µM (inactive),0.363 µM (active),,17.1 µM (inactive),14.5 µM (inactive),0.366 µM (active),1.76 µM (inactive),1.47 µM (inactive),1.61 µM (inactive),1.73 µM (inactive),1.51 µM (inactive),0.638 µM (active),1.72 µM (inactive)
CC(=O)OC1COC(Nn2c(=O)[nH]c3ccccc3c2=O)C(OC(C)=O)C1OC(C)=O (centres undefined),> 100 µM (inactive),> 100 µM (inactive),> 100 µM (inactive),,36.1 µM (inactive),> 100 µM (inactive),> 100 µM (inactive),> 100 µM (inactive),> 100 µM (inactive),> 100 µM (inactive),51.9 µM (inactive),> 100 µM (inactive),39.4 µM (inactive),> 100 µM (inactive),86.9 µM (inactive),> 100 µM (inactive),,> 100 µM (inactive),> 100 µM (inactive),> 100 µM (inactive)
OC(C/C(=N\N1CCCCC1)c1cccs1)(C(F)(F)F)C(F)(F)F,> 10 µM (inactive),> 10 µM (inactive),> 10 µM (inactive),> 10 µM (inactive),> 10 µM (inactive),> 10 µM (inactive),> 10 µM (inactive),> 10 µM (inactive),> 10 µM (inactive),> 10 µM (inactive),> 10 µM (inactive),> 10 µM (inactive),> 10 µM (inactive),> 10 µM (inactive),> 10 µM (inactive),> 10 µM (inactive),> 10 µM (inactive),> 10 µM (inactive),> 10 µM (inactive),
O=C1Nc2ccc(Br)cc2/C1=N/NC(=S)Nc1ccc([N+](=O)[O-])cc1,7.13 µM (inactive),11.1 µM (inactive),13.7 µM (inactive),,,7.71 µM (inactive),4.06 µM (inactive),,5.35 µM (inactive),7.74 µM (inactive),15.9 µM (inactive),5.5 µM (inactive),5.94 µM (inactive),5.08 µM (inactive),6.37 µM (inactive),12.7 µM (inactive),9.79 µM (inactive),11.4 µM (inactive),,2.28 µM (inactive)
N#CC(c1cc(Cl)ncn1)c1nc2ccccc2s1 (centres undefined),4.02 µM (inactive),19.3 µM (inactive),,,20.9 µM (inactive),10.3 µM (inactive),18.6 µM (inactive),17.1 µM (inactive),7.53 µM (inactive),16.4 µM (inactive),25.8 µM (inactive),,3.87 µM (inactive),6.92 µM (inactive),3.85 µM (inactive),14.8 µM (inactive),2.07 µM (inactive),14.1 µM (inactive),27.8 µM (inactive),5 µM (inactive)
Cc1ccc2nc(-c3ccc(-n4c(C)nc(=O)c(-c5ccc(F)cc5)c4C)cc3)sc2c1,15.5 µM (inactive),20.8 µM (inactive),19.1 µM (inactive),,13.5 µM (inactive),13.2 µM (inactive),17.8 µM (inactive),12.7 µM (inactive),11.9 µM (inactive),10.8 µM (inactive),17.5 µM (inactive),,17.3 µM (inactive),14.2 µM (inactive),17.5 µM (inactive),15.1 µM (inactive),15.1 µM (inactive),22 µM (inactive),14.7 µM (inactive),14.5 µM (inactive)
